The nature of the data set: recombinant UMI read abundance after kanamycin selection (control-corrected) (log10(CPM+1)); higher = more efficient recombination; extreme values may be limits of the assay; sequences stand for … in AGTGCAGAGAAAATCGGCCAGTTTTCTCTGCCTGCAGTCCGCATGCCGTGGGACCCCTTGGGTTCTAACCTGTTGCCTAGATTTATGCAGCGGACTGCCTTTCTCCCAAAGTGATAAACCGG…AGGTTGGTTTCACT; site = the 11-nt donor. The gist of the method:
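The measure is log10(CPM+1) for recombinant UMIs. These were PCR-amplified across the donor–target junction and sequenced after Escherichia coli carrying a donor and donor-binding-loop pair library and a target plasmid with T7-inducible IS621 bridge recombinase was plated on IPTG (0.07 mM) plus kanamycin or unselected. CPM were averaged over two replicates and scaled by control-derived factors.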
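Also: IS621 bridge recombinase in Escherichia coli cells against a fixed T5 target plasmid.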

Regarding “CCCTAGCCATGGACCGGTTTTCCCGGTAATCCGTATTTGCC (site TCCTAGCCTGG)”, the “recombinant UMI read abundance (log10)” value came to 0.
Take “CCCTAGGCATGGACCGGTTTTCCCGGTAATCCGTATTTGCC (site CCCTAGACTGG)”: the “recombinant UMI read abundance (log10)” value was 0.
As to “CCCTAGGCATGGACCGGTTTTCCCGGTAATCCGTATTTGCC (site CCCTAGCCTGG)”, the “recombinant UMI read abundance (log10)” value was 0.
With “CCCTAGGCATGGACCGGTTTTCCCGGTAATCCGTATTTGCC (site CCCTAGGCTGG)” the figure was 0; with “CCCTAGGCATGGACCGGTTTTCCCGGTAATCCGTATTTGCC (site CCCTAGTCTGG)”, 0; with “CCCTAGTCATGGACCGGTTTTCCCGGTAATCCGTATTTGCC (site CCCTAGACTGG)”, 0.402.
Take “CCCTAGTCATGGACCGGTTTTCCCGGTAATCCGTATTTGCC (site CCCTAGCCTGG)”: the “recombinant UMI read abundance (log10)” value turned out to be 0.
For “CCCTAGTCATGGACCGGTTTTCCCGGTAATCCGTATTTGCC (site CCCTAGGCTGG)”, the “recombinant UMI read abundance (log10)” value worked out at 0.
Next, “CCCTAGTCATGGACCGGTTTTCCCGGTAATCCGTATTTGCC (site CCCTAGTCTGG)”: 1.23.
Next, “CCCTCAACATGGACCGGTTTTCCCGGTAATCCGTATTTGCA (site CCCTCAACTTG)”: 0.377; “CCCTCTACATGGACCGGTTTTCCCGGTAATCCGTATTTGCT (site CCCTCTACTAG)”: 1.58.
Take “CCCTGTCCATGGACCGGTTTTCCCGGTAATCCGTATTTGCA (site CCCAGTCCTTG)”: the “recombinant UMI read abundance (log10)” value worked out at 0.
With “CCCTGTCCATGGACCGGTTTTCCCGGTAATCCGTATTTGCA (site CCCCGTCCTTG)” the figure was 0.0428; with “CCCTGTCCATGGACCGGTTTTCCCGGTAATCCGTATTTGCA (site CCCGGTCCTTG)”, 0; with “CCCTGTCCATGGACCGGTTTTCCCGGTAATCCGTATTTGCA (site CCCTGTCCTTG)”, 0.00678.
With “CCCTTAGCATGGACCGGTTTTCCCGGTAATCCGTATTTGTG (site CCATTAGCTCA)”, the “recombinant UMI read abundance (log10)” value was 0.0224.
Consider “CCCTTAGCATGGACCGGTTTTCCCGGTAATCCGTATTTGTG (site CCCTTAGCTCA)”, for which the “recombinant UMI read abundance (log10)” value was found to be 0.0472.
On to “CCCTTAGCATGGACCGGTTTTCCCGGTAATCCGTATTTGTG (site CCGTTAGCTCA)”, for which the “recombinant UMI read abundance (log10)” value came to 0.00331.
As for “CCCTTAGCATGGACCGGTTTTCCCGGTAATCCGTATTTGTG (site CCTTTAGCTCA)”, the “recombinant UMI read abundance (log10)” value was 0.0232.
Next, “CCCTTCTCATGGACCGGTTTTCCCGGTAATCCGTATTTGGG (site ACCTTCTCTCC)”: 0.00611; “CCCTTCTCATGGACCGGTTTTCCCGGTAATCCGTATTTGGG (site CACTTCTCTCC)”: 0.00776; “CCCTTCTCATGGACCGGTTTTCCCGGTAATCCGTATTTGGG (site CCATTCTCTCC)”: 0.
Turning to “CCCTTCTCATGGACCGGTTTTCCCGGTAATCCGTATTTGGG (site CCCATCTCTCC)”, the “recombinant UMI read abundance (log10)” value is 0.0128.
For “CCCTTCTCATGGACCGGTTTTCCCGGTAATCCGTATTTGGG (site CCCCTCTCTCC)”, the “recombinant UMI read abundance (log10)” value is 0.0125.
With “CCCTTCTCATGGACCGGTTTTCCCGGTAATCCGTATTTGGG (site CCCGTCTCTCC)” the figure was 0.00385.
“CCCTTCTCATGGACCGGTTTTCCCGGTAATCCGTATTTGGG (site CCCTACTCTCC)”: the “recombinant UMI read abundance (log10)” value is 0.0199.
With “CCCTTCTCATGGACCGGTTTTCCCGGTAATCCGTATTTGGG (site CCCTCCTCTCC)” the figure was 0.0129.
With “CCCTTCTCATGGACCGGTTTTCCCGGTAATCCGTATTTGGG (site CCCTGCTCTCC)” the figure was 0.0154; with “CCCTTCTCATGGACCGGTTTTCCCGGTAATCCGTATTTGGG (site CCCTTATCTCC)”, 0; with “CCCTTCTCATGGACCGGTTTTCCCGGTAATCCGTATTTGGG (site CCCTTCACTCC)”, 0.0149.
With “CCCTTCTCATGGACCGGTTTTCCCGGTAATCCGTATTTGGG (site CCCTTCCCTCC)” the figure was 0.00574; with “CCCTTCTCATGGACCGGTTTTCCCGGTAATCCGTATTTGGG (site CCCTTCGCTCC)”, 0.0128; with “CCCTTCTCATGGACCGGTTTTCCCGGTAATCCGTATTTGGG (site CCCTTCTCTAC)”, 0.
Consider “CCCTTCTCATGGACCGGTTTTCCCGGTAATCCGTATTTGGG (site CCCTTCTCTCA)”, for which the “recombinant UMI read abundance (log10)” value is 0.0118.
“CCCTTCTCATGGACCGGTTTTCCCGGTAATCCGTATTTGGG (site CCCTTCTCTCC)”: the “recombinant UMI read abundance (log10)” value stood at 0.0281.
Next, “CCCTTCTCATGGACCGGTTTTCCCGGTAATCCGTATTTGGG (site CCCTTCTCTCG)”: 0.0129; “CCCTTCTCATGGACCGGTTTTCCCGGTAATCCGTATTTGGG (site CCCTTCTCTCT)”: 0.0297.
On to “CCCTTCTCATGGACCGGTTTTCCCGGTAATCCGTATTTGGG (site CCCTTCTCTGC)”, for which the “recombinant UMI read abundance (log10)” value was 0.
Next, “CCCTTCTCATGGACCGGTTTTCCCGGTAATCCGTATTTGGG (site CCCTTCTCTTC)”: 0.00791; “CCCTTCTCATGGACCGGTTTTCCCGGTAATCCGTATTTGGG (site CCCTTGTCTCC)”: 0.0418; “CCCTTCTCATGGACCGGTTTTCCCGGTAATCCGTATTTGGG (site CCCTTTTCTCC)”: 0.00608.
With “CCCTTCTCATGGACCGGTTTTCCCGGTAATCCGTATTTGGG (site CCGTTCTCTCC)” the figure was 0; with “CCCTTCTCATGGACCGGTTTTCCCGGTAATCCGTATTTGGG (site CCTTTCTCTCC)”, 0.00766.
On to “CCCTTCTCATGGACCGGTTTTCCCGGTAATCCGTATTTGGG (site CGCTTCTCTCC)”, for which the “recombinant UMI read abundance (log10)” value turned out to be 0.
With “CCCTTCTCATGGACCGGTTTTCCCGGTAATCCGTATTTGGG (site CTCTTCTCTCC)” the figure was 0.0147; with “CCCTTCTCATGGACCGGTTTTCCCGGTAATCCGTATTTGGG (site GCCTTCTCTCC)”, 0.00558; with “CCCTTCTCATGGACCGGTTTTCCCGGTAATCCGTATTTGGG (site TCCTTCTCTCC)”, 0.0111.
In the case of “CCCTTCTCATGGACCGGTTTTCCCGGTAATCCGTATTTGTG (site CCCTTCTCTCA)”, the “recombinant UMI read abundance (log10)” value was determined as 0.583.
With “CCCTTCTCATGGACCGGTTTTCCCGGTAATCCGTATTTGTG (site CCCTTCTCTCC)” the figure was 0.0231.
Next, “CCCTTCTCATGGACCGGTTTTCCCGGTAATCCGTATTTGTG (site CCCTTCTCTCG)”: 0.995; “CCCTTCTCATGGACCGGTTTTCCCGGTAATCCGTATTTGTG (site CCCTTCTCTCT)”: 0.00643; “CCCTTTTCATGGACCGGTTTTCCCGGTAATCCGTATTTGGG (site CCCTTATCTCC)”: 0.00602.
With “CCCTTTTCATGGACCGGTTTTCCCGGTAATCCGTATTTGGG (site CCCTTCTCTCC)” the figure was 0.0124; with “CCCTTTTCATGGACCGGTTTTCCCGGTAATCCGTATTTGGG (site CCCTTGTCTCC)”, 0.0108; with “CCCTTTTCATGGACCGGTTTTCCCGGTAATCCGTATTTGGG (site CCCTTTTCTCC)”, 0.
As for “CCGAAGCCATGGACCGGTTTTCCCGGTAATCCGTATTTGGG (site ACGAAGCCTCC)”, the “recombinant UMI read abundance (log10)” value came to 0.0168.
Next, “CCGAAGCCATGGACCGGTTTTCCCGGTAATCCGTATTTGGG (site CCGAAGCCTCC)”: 0.0077; “CCGAAGCCATGGACCGGTTTTCCCGGTAATCCGTATTTGGG (site GCGAAGCCTCC)”: 0.0226.
As for “CCGAAGCCATGGACCGGTTTTCCCGGTAATCCGTATTTGGG (site TCGAAGCCTCC)”, the “recombinant UMI read abundance (log10)” value stood at 0.0139.
With “CCGAGTTCATGGACCGGTTTTCCCGGTAATCCGTATTTGTT (site CCGAGTTCTAA)” the figure was 0.501; with “CCGCCCGCATGGACCGGTTTTCCCGGTAATCCGTATTTGTA (site CCGCCCGCTTA)”, 1.02.
Next, “CCGGAACCATGGACCGGTTTTCCCGGTAATCCGTATTTGAT (site CAGGAACCTAT)”: 0; “CCGGAACCATGGACCGGTTTTCCCGGTAATCCGTATTTGAT (site CCGGAACCTAT)”: 0.
Next, “CCGGAACCATGGACCGGTTTTCCCGGTAATCCGTATTTGAT (site CGGGAACCTAT)”: 0; “CCGGAACCATGGACCGGTTTTCCCGGTAATCCGTATTTGAT (site CTGGAACCTAT)”: 0.00208.
With “CCGGGACCATGGACCGGTTTTCCCGGTAATCCGTATTTGAG (site CCGGGACCTCT)”, the “recombinant UMI read abundance (log10)” value turned out to be 0.
Next, “CCGGGCCCATGGACCGGTTTTCCCGGTAATCCGTATTTGTA (site CCGGGCCCTTA)”: 0.0269.
With “CCGTAATCATGGACCGGTTTTCCCGGTAATCCGTATTTGCG (site CCGTAATCTCG)” the figure was 1.7.
